“Also recorded” adds a separate entry of the source.
Columns and labels:
[1] = EDTA challenge, in vitro stability (radio-TLC); assay type: physicochemical; conditions: for order of ^89Zr complex stability: based upon EDTA challenge studies
Experimental: Lipophilicity (Log P) will be determined using the water:octanol method. Briefly, the water:octanol (1:1) solution containing the ^89Zr-complex (0.19 MBq) will be vortexed (5 min) and then centrifuged (5 minutes at 17,000 rpm). After separation, aliquots from each layer will be counted separately in the gamma counter, and Log P will be calculated as the ratio of counts in the octanol fraction to counts in the aqueous fraction. […] The different pH environments will be meant to reflect the pH environments in normal blood (pH 7) or the lysosome (pH 5). Samples will be analyzed over the course of 7 days using radio-TLC and radio-HPLC.
Based upon our EDTA challenge studies, the order of ^89Zr complex stability can be described as ^89Zr-DOTA>>^89Zr-DOTP>^89Zr-DOTAM>^89Zr-DFO.

[2] = DTPA challenge, in vitro stability (radio-TLC); assay type: physicochemical; conditions: 50 mM DTPA, n = 3
Experimental: (§1) Lipophilicity (Log P) will be determined using the water:octanol method. Briefly, the water:octanol (1:1) solution containing the ^89Zr-complex (0.19 MBq) will be vortexed (5 min) and then centrifuged (5 minutes at 17,000 rpm). After separation, aliquots from each layer will be counted separately in the gamma counter, and Log P will be calculated as the ratio of counts in the octanol fraction to counts in the aqueous fraction. In vitro stability will be determined by incubating each ^89Zr complex at 37° C. in the presence 500 μL of DTPA (50 mM, pH 7 or pH 5), 500 μL of EDTA (50 mM, pH 7 or pH 5), or 500 μL of human serum (at 37° C.). The different pH environments will be meant to reflect the pH environments in normal blood (pH 7) or the lysosome (pH 5). Samples will be analyzed over the course of 7 days using radio-TLC and radio-HPLC.

[3] = Human serum stability (radio-TLC/ITLC, size exclusion chromatography); assay type: in vitro ADME; conditions: for In vitro stability (Radio-TLC): Serum, n = 3; for degradation in human serum (radio-ITLC): human serum proteins, 7 days at 37° C.
Experimental: as §1
To further characterize the stability of Zr-tetraazamacrocycle complexes and preliminarily assess their suitability for in vivo applications, each radiometal complex was incubated with human serum proteins for 7 days at 37° C.
Any ^89Zr transchelated to serum proteins is expected to be complexed by EDTA and move to the solvent front in this system.

[4] = Metal competition studies (demetallation by excess metal salts); assay type: physicochemical; conditions: for complex remaining intact: 7 days
Experimental: Tetraazamacrocycles can chelate numerous, biologically relevant metal cations, and this property can potentially create a second mechanism for ^89Zr^4+ dissociation from its chelator in vivo. To assess the ability of the Zr-complexes to resist demetallation by another metal cation, metal competition studies were performed, in which the radiometal complex was mixed with an excess concentration of metal salts.

[5] = Acute in vivo biodistribution of ^89Zr-complexes in normal mice; parameters: species or system NIH Swiss mice; conditions: for radioactivity retention in bone tissue over time: up to 72 h
Experimental: NIH Swiss mice (n=6/time point) will be injected with the ^89Zr-AMC (0.56 MBq (15 μCi)), and then sacrificed at 1, 4, 24, 48 and 72 h post-injection (p.i.). Organs of interest will be removed, weighed and counted on a gamma counter. Percent injected dose per gram (% ID/g) and percent injected dose per organ (% ID/organ) will be counted and compared to a weighed, counted standard for all groups.
The in vivo stability of ^89Zr-DOTA, ^89Zr-DOTP, and ^89Zr-DOTAM were then evaluated in acute biodistribution studies using female NIH Swiss mice (6-8 wk old, n=6). […] While surfactant was used in the injection formulation for biodistribution studies, it is hypothesized that once in the blood stream, ^89Zr-DOTAM aggregates with serum proteins, which are deposited in these tissues during circulation.

[6] = Small animal PET imaging in normal mice; assay type: in vivo; conditions: for radioactivity at 4 h (static PET): 4 h after injection; for radioactivity at 24 h (static PET): 24 h after injection; for excretion route (PET): mouse, in vivo
Experimental: Small animal PET/CT imaging will be conducted on the ^89Zr-AMCs identified from studies described above and in vivo biodistribution studies. NIH Swiss mice (n=6/cohort) will be injected with either ^89ZrCl4, ^89Zr-DFO (11 MBq (300 μCi)) or ^89Zr-AMC and imaged using 1 h dynamic scanning followed by static imaging at 4, 24, 48 h and 72 h p.i. […] All PET images will be co-registered with CT, to (a) allow more accurate selection of regions of interest to correspond with anatomy described by CT, and (b) reduce inaccuracies that result from partial volume effects, which can result in falsely low standard uptake values (SUVs) during data analysis. SUVs and the corresponding % ID/g will be determined from the co-registered PET/CT images using the formula SUV=[nCi/cc×animal weight/injected dose], and correlated to the biodistribution data.
Normal mice were injected with ^89Zr-DFO and ^89Zr-DOTA and dynamic PET imaging done from 0-60 minutes, followed by static imaging at 2, 4, and 24 hours after injection.

[7] = EDTA challenge, in vitro stability (radio-TLC); assay type: physicochemical; conditions: 50 mM EDTA, pH 5.5, n = 3
[8] = In vitro solution behaviour (aggregation/precipitation); assay type: physicochemical; conditions: unless a low concentration of surfactant was included
[9] = Lipophilicity (log P), water/octanol partition method; assay type: physicochemical
Experimental: as §1

SMILES	In vitro stability (Radio-TLC) ([2]; pH 5.5, 1 h)	In vitro stability (Radio-TLC) ([2]; pH 5.5, 7 d)	In vitro stability (Radio-TLC) ([2]; pH 7.0, 1 h)	In vitro stability (Radio-TLC) ([2]; pH 7.0, 7 d)	In vitro stability (Radio-TLC) ([3]; 1 h)	In vitro stability (Radio-TLC) ([3]; 7 d)	degradation in human serum (radio-ITLC) [3]	blood clearance ([5]; normal mice, n=6/group)	radioactivity at 24 h (static PET) [6]	excretion route (PET) [6]	In vitro stability (Radio-TLC) ([7]; 1 h)	In vitro stability (Radio-TLC) ([7]; 7 d)	Lipophilicity (log P) [9]	order of ^89Zr complex stability [1]	radioactivity retention in bone tissue over time [5]	radioactivity at 4 h (static PET) [6]	further results
CC(=O)N([O-])CCCCCNC(=O)CCC(=O)N([O-])CCCCCNC(=O)CCC(=O)N([O-])CCCCCN.[89Zr+4] [^89Zr-DFO, reference compound]	7.3 ± 0.8%	0%	90.3 ± 0.5%	40.6 ± 0.5%	100%	99.3 ± 0.1%	no noticeable degradation	rapid blood clearance	still visible in static images	excreted renally	6.3 ± 0.8%	0%	–	^89Zr-DOTA>>^89Zr-DOTP>^89Zr-DOTAM>^89Zr-DFO	increases over time	more radioactivity accumulated in the kidneys	loss of metal ions in EDTA challenge ([1]; 1000-fold excess of EDTA, after 3 h): completely lost metal ions; complex remaining intact ([4]; challenged with Fe^3+): 33.9%; complex remaining intact ([4]; challenged with Ga^3+): 72.6%
[Cl][89Zr]([Cl])([Cl])[Cl] [^89ZrCl4, reference compound]	–	–	–	–	–	–	–	–	–	–	–	–	–	–	–	–	association with serum proteins (size exclusion chromatography) ([3]; unchelated ^89Zr control): found to be associated with serum proteins

Further lines, with some results ahead:

In vitro stability (Radio-TLC) ([2]; pH 5.5, 1 h)	In vitro stability (Radio-TLC) ([2]; pH 5.5, 7 d)	In vitro stability (Radio-TLC) ([2]; pH 7.0, 1 h)	In vitro stability (Radio-TLC) ([2]; pH 7.0, 7 d)	In vitro stability (Radio-TLC) ([3]; 1 h)	In vitro stability (Radio-TLC) ([3]; 7 d)	degradation in human serum (radio-ITLC) [3]	blood clearance ([5]; normal mice, n=6/group)	radioactivity at 24 h (static PET) [6]	excretion route (PET) [6]	In vitro stability (Radio-TLC) ([7]; 1 h)	In vitro stability (Radio-TLC) ([7]; 7 d)	Lipophilicity (log P) [9]	SMILES	order of ^89Zr complex stability [1]	radioactivity retention in bone tissue over time [5]	radioactivity at 4 h (static PET) [6]	further results
–	–	–	–	–	–	no noticeable degradation	–	–	–	–	–	–	NC(=O)CN1CCN(CC(N)=O)CCN(CC(N)=O)CCN(CC(N)=O)CC1.[89Zr+4] [^89Zr-DOTAM]	^89Zr-DOTA>>^89Zr-DOTP>^89Zr-DOTAM>^89Zr-DFO	–	–	radioactivity retained in liver and spleen ([5]; female NIH Swiss mice, not excreted over 72 hour time course): retained elevated levels of radioactivity in liver and spleen tissues; behaviour in solution in vitro [8]: aggregated and precipitated out of solution
100%	100%	100%	100%	100%	100%	no noticeable degradation	rapid blood clearance	barely above background levels	excreted renally	100%	100%	most hydrophilic characteristics	O=C([O-])CN1CCN(CC(=O)[O-])CCN(CC(=O)[O-])CCN(CC(=O)[O-])CC1.[89Zr+4] [^89Zr-DOTA]	^89Zr-DOTA>>^89Zr-DOTP>^89Zr-DOTAM>^89Zr-DFO	remained low with no statistically significant changes at any time point	nearly all the radioactivity was excreted	transchelation in EDTA challenge ([1]; 100-, 500-, and 1000-fold excess of EDTA at pH 5 or pH 7 over 7 days): did not experience transchelation; demetallation in metal competition ([4]; excess concentration of metal salts, 7-day experiment): No demetallation; reduction in radioactivity accumulation in the liver, kidney, and bone ([5]; 72 hours, pilot data): ≥ 10%; radioactivity retained in blood, liver, kidney and bone compared to ^89Zr-DOTP ([5]; intravenous injection): retained significantly less radioactivity in their blood, liver, kidney and bone tissue; radioactivity retained in liver, kidney and bone compared to ^89Zr-DFO ([5]; normal mice, n=6/group): lower radioactivity retention in liver, kidney, and bone tissues; also recorded: retained less radioactivity in the liver, kidney and bone; radioactivity in kidney and bone compared to ^89Zr-DFO (PET) ([6]; dynamic PET 0-60 minutes): much lower
–	–	–	–	–	–	no noticeable degradation	–	–	–	–	–	most hydrophilic characteristics	O=P([O-])(O)CN1CCN(CP(=O)([O-])O)CCN(CP(=O)([O-])O)CCN(CP(=O)([O-])O)CC1.[89Zr+4] [^89Zr-DOTP]	^89Zr-DOTA>>^89Zr-DOTP>^89Zr-DOTAM>^89Zr-DFO	–	–	bone retention compared to ^89Zr-DFO ([5]; n=6/group): Bone retention is higher; radioactivity retained in liver and kidney compared to ^89Zr-DFO ([5]; n=6/group): retained less radioactivity in the liver and kidney
